Assay results as given in patent US20020035131A1, “Regimen and kit for amelioration of premature ejaculation” (Pentech Pharmaceuticals, Inc., priority 1999, published 2002).

Key:
[1] = system: normally potent male patients suffering from premature ejaculation; assay: Example 2: incidence of adverse effects; assay type: in vivo, human
[2] = system: healthy men with a diagnosis of premature ejaculation (PE); assay: Example 3: double-blind, randomized, placebo-controlled three-way crossover safety and efficacy study, 20 and 30 mg capsules; assay type: in vivo, human; details: for Mean Time in minutes, Reported By Partner / Time in minutes (Range), Reported By Partner / Mean Time in minutes, Reported By Patient / Time in minutes (Range), Reported By Patient / Mean % Change from Baseline, Reported By Partner / Mean % Change from Baseline, Reported By Patient: 6-week treatment period, preliminary data; for Mean Time in minutes, Reported By Partner / Time in minutes (Range), Reported By Partner / Mean Time in minutes, Reported By Patient / Time in minutes (Range), Reported By Patient: male baseline latency ≦ 2 minutes; for Reason for Early Termination: AE (Adverse Experience), patients: crossover of placebo, 20 and 30 mg capsules, not attributed to one treatment
Description: A double-blind, randomized, placebo-controlled, three-way crossover safety and efficacy study was conducted at four clinical sites, A-D. […] The study consisted of a screening period, a baseline period, and three treatment periods, separated by two washout periods. Patients who completed the study participated for about twenty-five weeks. […] Patients who met the selection criteria provided a medical history and submitted to psychosexual and physical examinations at screening. The efficacy of the paroxetine capsules was assessed at each visit by questionnaire. Safety was assessed by physical examinations and adverse experience (AE) reports, if any, were collected throughout the course of the study. A post-treatment physical assessment was performed at the final visit. Qualified patients who were admitted to the study were assigned an identification number in sequential order by enrollment. […] There were about twenty-three patients per sequence. […] Life long history of PE and/or history of PE within the last six months having ≦one minute ejaculation and a perception of lack of control. […] Identically matching placebo capsules were also supplied. Blinding, packaging and labeling was such that each strength of paroxetine capsule and placebo capsule was indistinguishable from one another on the basis of size, appearance, shape, weight, taste, odor finish, and dissolution characteristics. […] A three-week washout (no treatment) period took place between the end of Treatment Period 1 and the start of Treatment Period 2, and between the end of Treatment Period 2 and the start of Treatment Period 3. The following methodology for the study was employed.

[3] = Study Group 2, Daily Paroxetine (10 mg)
[4] = Study Group 2, Daily Paroxetine (10 mg), 42 patients
[5] = Study Group 2, Daily Paroxetine (10 mg), 42 patients, listed as Paroxetine

Fc1ccc([C@@H]2CCNC[C@H]2COc2ccc3c(c2)OCO3)cc1 (relative stereo) [paroxetine, trans-(−)-3-(1,3-benzodioxol-5-yloxy)methyl-4-(4-fluorophenyl) piperidine]
patients reporting any adverse effects ([1]; Study Group 1, continual maintenance use of paroxetine (20 mg)): None
Adverse effects: Total Patients (fraction) [1, 3]: 7/42
Adverse effects: Total Patients (percent) [1, 3]: 17%
Adverse effect: Anejaculation (patients) [1, 4]: Three
Adverse effect: Anorexia (patients) [1, 4]: 1
Adverse effect: Gastrointestinal upset (patients) [1, 4]: 3
Adverse effect: Reduced Libido (patients) [1, 4]: Two
Adverse effect: Anejaculation (patients) [1, 5]: 3
Adverse effect: Reduced Libido (patients) [1, 5]: 2
return of ejaculation after withdrawal of the drug ([1]; Study Group 2, patients with anejaculation on daily paroxetine): 2 to 10 days
Mean Time in minutes, Reported By Partner ([2]; 20 mg capsule daily, n = 26): 6.5 min
Time in minutes (Range), Reported By Partner ([2]; 20 mg capsule daily, n = 26): (0.4-20) minutes
Mean Time in minutes, Reported By Patient ([2]; 20 mg capsule daily, n = 28): 6.2 min
Time in minutes (Range), Reported By Patient ([2]; 20 mg capsule daily, n = 28): (0.5-20) minutes
Mean % Change from Baseline, Reported By Partner ([2]; 20 mg capsule daily): 225%
Mean % Change from Baseline, Reported By Patient ([2]; 20 mg capsule daily): 464%
Mean Time in minutes, Reported By Partner ([2]; 30 mg capsule daily, n = 25): 6.8 min
Time in minutes (Range), Reported By Partner ([2]; 30 mg capsule daily, n = 25): (0.3-30) minutes
Mean Time in minutes, Reported By Patient ([2]; 30 mg capsule daily, n = 27): 7 min
Time in minutes (Range), Reported By Patient ([2]; 30 mg capsule daily, n = 27): (0.25-45) minutes
Mean % Change from Baseline, Reported By Partner ([2]; 30 mg capsule daily): 240%
Mean % Change from Baseline, Reported By Patient ([2]; 30 mg capsule daily): 536%
Reason for Early Termination: AE (Adverse Experience), patients ([2]; Clinical Site A, 10 enrolled): 0
Reason for Early Termination: AE (Adverse Experience), patients ([2]; Clinical Site B, 9 enrolled): 0
Reason for Early Termination: AE (Adverse Experience), patients ([2]; Clinical Site C, 15 enrolled): 2
Reason for Early Termination: AE (Adverse Experience), patients ([2]; Clinical Site D, 19 enrolled): 3
Reason for Early Termination: AE (Adverse Experience), patients ([2]; TOTALS of sites A-D, 53 enrolled): 5
